Results from patent publication US11419806B2, “Prebiotic oral care methods using a saccharide” (Colgate-Palmolive Company, priority 2013, dated 2022).

System: beneficial oral bacteria and pathogenic oral bacteria
Assay: Twenty-four hour biofilm growth, overall prebiotic assessment
Assay type: cell-based
Text: Substrates that were able to increase the biofilm mass of at least one of the above beneficial bacteria while not or only minimally increasing the biofilm mass of the pathogenic bacteria are considered to be prebiotic compounds.
The increase in biofilm formation of the tested bacteria in response to selected saccharides (D-turanose, D-lactitol, myo-inositol, and N-acetyl-D-mannosamine) was investigated by setting up biofilm growth assays in a nutritionally rich medium (brain heart infusion broth (BHI), Oxoid), over 24 hours. Late exponential growth phase liquid cultures were prepared by transferring the respective bacterium from blood agar plates to BHI and overnight incubation at 37° C. in an anaerobic atmosphere for A. viscosus, V. parvula, P. gingivalis, P. intermedia, T. forsythia, A. naeslundii, and C. sputigena, and in a 5% CO2 environment for S. salivarius, S. sanguinis, S. mitis, A. actinomycetemcomitans, S. mutans, and S. gordonii. Overnight cultures were transferred to BHI and adjusted to a concentration of 1×10^7 CFU/ml by measuring the optical density at 600 nm (OD600) (BioRad SmartSpec 3000). For each strain, 200 μl of the bacterial suspension was added to a 96-well plate containing 20 μl of the respective saccharides. Final concentrations of the saccharides were set to 5, 10, 20 and 25 μmol/ml. […] Additionally, for each bacterium tested, a background control, to correct for background staining, was added. This background control contained the bacterium tested and 0.03 weight % chlorhexidine, as an antiseptic. Plates were incubated as previously described. After 24 hrs the supernatant was removed from the wells of the plates. The wells were washed twice with 1×100 μL PBS (phosphate buffered saline), fixed for 20 minutes with 96% vol. ethanol (96% vol. solution in water) and the biofilm retained at the bottom of the wells was stained with 1 weight % crystal violet (1 weight % solution in water). The bound dye was dissolved with 5% vol. acetic acid (5% vol. solution in water). Quantification of the stained biofilm was performed by measuring the absorbance at 630 nm using a Multiskan Ascent microplate reader (Thermo Scientific).
The experiment was carried out on three different days (thus providing 3 biological replicas) and each day the experiment was carried out in quadruple (thus providing 4 technical replicas) for each combination of bacterium with saccharide and for each control. For each day and for each combination, the average (mean) of the values obtained (as detailed above) for the four technical replicas was calculated to provide a single value for each combination on each day. The values shown in Tables 7a, 7b, 8a, 8b, below, are the average (mean) of the three single values obtained for each combination of bacterium with saccharide. […]

[1] = concentrations of 5, 10, 20 and 25 μmol/ml

Row | Compound | prebiotic effects (biofilm growth, threshold value 1.6) [1] | prebiotic effects (biofilm growth, threshold value 1.6) (concentrations of 20 and 25 μmol/ml)
1 | CC(=O)N[C@H](C=O)[C@@H](O)[C@H](O)[C@H](O)CO [N-acetyl-D-mannosamine, 2-acetamido-2-deoxy-D-mannose] | exhibited prebiotic effects | 
2 | OC[C@@H](O)[C@@H](O[C@H]1O[C@H](CO)[C@H](O)[C@H](O)[C@H]1O)[C@H](O)[C@@H](O)CO [D-Lactitol, 4-O-α-D-galactopyranosyl-D-glucitol] | exhibited prebiotic effects | 
3 | OC[C@H]1O[C@@](O)(CO)[C@@H](O[C@H]2O[C@H](CO)[C@@H](O)[C@H](O)[C@H]2O)[C@@H]1O [D-Turanose, α-D-glucopyranosyl-(1→3)-α-D-fructofuranose] |  | exhibited prebiotic effects
4 | O[C@H]1[C@H](O)[C@@H](O)[C@H](O)[C@@H](O)[C@H]1O [Myo-Inositol, (1R,2R,3S,4S,5R,6S)-cyclohexane-1,2,3,4,5,6-hexol] | exhibited prebiotic effects | 
